Data taken from PubChem BioAssay (NCI).
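All cell lines were grown in 96-well plates and treated with compound for 48 hours. The concentration for full growth arrest is given as TGI.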

Tests used:
Assay in all cases: NCI-60 cell line screen, 48 h
SF-539 CNS = test system: SF-539 CNS
HS 578T breast = test system: HS 578T breast
NCI-H522 lung = test system: NCI-H522 lung
SF-295 CNS = test system: SF-295 CNS
IGROV1 ovarian = test system: IGROV1 ovarian
OVCAR-8 ovarian = test system: OVCAR-8 ovarian
SN12C renal = test system: SN12C renal
CAKI-1 renal = test system: CAKI-1 renal
SR leukemia = test system: SR leukemia
786-0 renal = test system: 786-0 renal
MCF7 breast = test system: MCF7 breast
ACHN renal = test system: ACHN renal
M14 melanoma = test system: M14 melanoma
OVCAR-4 ovarian = test system: OVCAR-4 ovarian
T-47D breast = test system: T-47D breast
CCRF-CEM leukemia = test system: CCRF-CEM leukemia
TK-10 renal = test system: TK-10 renal
KM12 colon = test system: KM12 colon
HOP-62 NSCLC = test system: HOP-62 NSCLC
SK-MEL-28 melanoma = test system: SK-MEL-28 melanoma
HT29 colon = test system: HT29 colon
HCT-15 colon = test system: HCT-15 colon
HCT-116 colon = test system: HCT-116 colon
COLO 205 colon = test system: COLO 205 colon
EKVX NSCLC = test system: EKVX NSCLC
SNB-19 CNS = test system: SNB-19 CNS
NCI/ADR-RES ovarian = test system: NCI/ADR-RES ovarian
UO-31 renal = test system: UO-31 renal
A498 renal = test system: A498 renal
HOP-92 NSCLC = test system: HOP-92 NSCLC
SF-268 CNS = test system: SF-268 CNS
NCI-H460 lung = test system: NCI-H460 lung
SNB-75 CNS = test system: SNB-75 CNS
PC-3 prostate = test system: PC-3 prostate
MALME-3M melanoma = test system: MALME-3M melanoma
BT-549 breast = test system: BT-549 breast
UACC-257 melanoma = test system: UACC-257 melanoma
NCI-H226 lung = test system: NCI-H226 lung
MDA-MB-435 = test system: MDA-MB-435
LOX IMVI melanoma = test system: LOX IMVI melanoma
K-562 leukemia = test system: K-562 leukemia
OVCAR-5 ovarian = test system: OVCAR-5 ovarian
UACC-62 melanoma = test system: UACC-62 melanoma
MDA-MB-231 breast = test system: MDA-MB-231 breast
RPMI-8226 leukemia = test system: RPMI-8226 leukemia
SK-OV-3 ovarian = test system: SK-OV-3 ovarian
OVCAR-3 ovarian = test system: OVCAR-3 ovarian
SK-MEL-2 melanoma = test system: SK-MEL-2 melanoma
SW-620 colon = test system: SW-620 colon
A549 NSCLC = test system: A549 NSCLC
NCI-H23 lung = test system: NCI-H23 lung
DU-145 prostate = test system: DU-145 prostate
MDA-N = test system: MDA-N
HL-60(TB) leukemia = test system: HL-60(TB) leukemia
MOLT-4 leukemia = test system: MOLT-4 leukemia
U251 CNS = test system: U251 CNS
SK-MEL-5 melanoma = test system: SK-MEL-5 melanoma
HCC-2998 colon = test system: HCC-2998 colon

CCCCCN1C(=O)C(Cc2ccccc2)N=C(c2ccc(O)cc2)c2cc(Cl)ccc21 (stereo not given)
TGI (SF-539 CNS): 38.9 µM
TGI (HS 578T breast): 32.4 µM
TGI (NCI-H522 lung): 17.2 µM
TGI (SF-295 CNS): 20.7 µM
TGI (IGROV1 ovarian): 23.9 µM
TGI (OVCAR-8 ovarian): 25.8 µM
TGI (SN12C renal): > 39.6 µM
TGI (CAKI-1 renal): 35.1 µM
TGI (SR leukemia): 15.3 µM
TGI (786-0 renal): 27.3 µM
TGI (MCF7 breast): 24.8 µM
TGI (ACHN renal): 25.9 µM
TGI (M14 melanoma): 34.4 µM
TGI (OVCAR-4 ovarian): 22.1 µM
TGI (T-47D breast): 12.4 µM
TGI (CCRF-CEM leukemia): > 100 µM
TGI (TK-10 renal): 31.2 µM
TGI (KM12 colon): 30.3 µM
TGI (HOP-62 NSCLC): 52.8 µM
TGI (SK-MEL-28 melanoma): 29.7 µM
TGI (HT29 colon): 25.6 µM
TGI (HCT-15 colon): 21.2 µM
TGI (HCT-116 colon): 21.5 µM
TGI (COLO 205 colon): 10.1 µM
TGI (EKVX NSCLC): 25.6 µM
TGI (SNB-19 CNS): 33.7 µM
TGI (NCI/ADR-RES ovarian): 25.4 µM
TGI (UO-31 renal): 25.3 µM
TGI (A498 renal): > 48.4 µM
TGI (HOP-92 NSCLC): 25 µM
TGI (SF-268 CNS): 25.3 µM
TGI (NCI-H460 lung): 24.3 µM
TGI (SNB-75 CNS): 23.7 µM
TGI (PC-3 prostate): 27.3 µM
TGI (MALME-3M melanoma): 23.6 µM
TGI (BT-549 breast): 33.4 µM
TGI (UACC-257 melanoma): 23.7 µM
TGI (NCI-H226 lung): 26.3 µM
TGI (MDA-MB-435): 24.4 µM
TGI (LOX IMVI melanoma): 18.5 µM
TGI (K-562 leukemia): 12.3 µM
TGI (OVCAR-5 ovarian): 48.3 µM
TGI (UACC-62 melanoma): 25 µM
TGI (MDA-MB-231 breast): 35.9 µM
TGI (RPMI-8226 leukemia): 12.1 µM
TGI (SK-OV-3 ovarian): 41.1 µM
TGI (OVCAR-3 ovarian): 45.1 µM
TGI (SK-MEL-2 melanoma): 34.4 µM
TGI (SW-620 colon): 26.8 µM
TGI (A549 NSCLC): 31.7 µM
TGI (NCI-H23 lung): 17.7 µM
TGI (DU-145 prostate): 30.9 µM
TGI (MDA-N): > 40.3 µM
TGI (HL-60(TB) leukemia): > 100 µM
TGI (MOLT-4 leukemia): 26.3 µM
TGI (U251 CNS): 27.2 µM

O=C(c1ccccc1)c1ccc(N2C(=O)/C(=C/c3ccccc3S)N=C2c2ccccc2)c(N2C(=O)/C(=C/c3ccccc3S)N=C2c2ccccc2)c1
TGI (SF-539 CNS): 40.3 µM
TGI (HS 578T breast): > 100 µM
TGI (SF-295 CNS): > 100 µM
TGI (IGROV1 ovarian): > 100 µM
TGI (OVCAR-8 ovarian): 88.6 µM
TGI (SN12C renal): > 100 µM
TGI (CAKI-1 renal): > 100 µM
TGI (SR leukemia): > 100 µM
TGI (786-0 renal): > 100 µM
TGI (MCF7 breast): > 100 µM
TGI (ACHN renal): > 100 µM
TGI (M14 melanoma): > 100 µM
TGI (OVCAR-4 ovarian): > 100 µM
TGI (T-47D breast): > 100 µM
TGI (CCRF-CEM leukemia): > 100 µM
TGI (TK-10 renal): > 100 µM
TGI (KM12 colon): > 100 µM
TGI (HOP-62 NSCLC): > 100 µM
TGI (SK-MEL-28 melanoma): > 100 µM
TGI (SK-MEL-5 melanoma): 87.6 µM
TGI (HT29 colon): > 100 µM
TGI (HCT-15 colon): > 100 µM
TGI (HCT-116 colon): > 100 µM
TGI (COLO 205 colon): > 100 µM
TGI (EKVX NSCLC): > 100 µM
TGI (SNB-19 CNS): > 100 µM
TGI (NCI/ADR-RES ovarian): > 100 µM
TGI (UO-31 renal): > 100 µM
TGI (A498 renal): > 100 µM
TGI (HOP-92 NSCLC): > 100 µM
TGI (SF-268 CNS): > 100 µM
TGI (NCI-H460 lung): > 100 µM
TGI (SNB-75 CNS): 65.8 µM
TGI (PC-3 prostate): > 100 µM
TGI (BT-549 breast): > 100 µM
TGI (UACC-257 melanoma): > 100 µM
TGI (MDA-MB-435): 46.1 µM
TGI (LOX IMVI melanoma): 62.9 µM
TGI (HCC-2998 colon): > 100 µM
TGI (K-562 leukemia): > 100 µM
TGI (OVCAR-5 ovarian): > 100 µM
TGI (UACC-62 melanoma): > 100 µM
TGI (MDA-MB-231 breast): > 100 µM
TGI (RPMI-8226 leukemia): 53.1 µM
TGI (SK-OV-3 ovarian): > 100 µM
TGI (OVCAR-3 ovarian): 51.2 µM
TGI (SK-MEL-2 melanoma): 57.3 µM
TGI (SW-620 colon): > 100 µM
TGI (A549 NSCLC): > 100 µM
TGI (DU-145 prostate): > 100 µM
TGI (MDA-N): > 100 µM
TGI (HL-60(TB) leukemia): > 100 µM
TGI (MOLT-4 leukemia): 56.6 µM
TGI (U251 CNS): > 100 µM
